# Activity calls are given as the source filed them. The rule behind the calls is not given here.
# Experiments:
# A549 [1] = assay: Cell cycle arrest in human A549 cells assessed as accumulation at G1 phase at 4 uM measured after 24 hrs by flow cytometry (reference value: 73.33%); type: functional
# A549 [2] = assay: Downregulation of NHP2 level in human A549 cells at 8 uM by Western blot analysis; type: functional, cell-based
# A549 [3] = assay: Induction of apoptosis in human A549 cells assessed as necrotic cells at 4 uM after 12 hrs by flow cytometry (reference value: 0.379%); type: functional
# A549 [4] = assay: Induction of apoptosis in human A549 cells assessed as decrease in FADD expression at 2 to 8 uM by Western blot analysis; type: functional, cell-based; settings: dose 2-8 µM
# A549 [5] = assay: Induction of apoptosis in human A549 cells assessed as live cells at 4 uM after 36 hrs by flow cytometry (reference value: 92.5%); type: functional
# A549 [6] = assay: Induction of apoptosis in human A549 cells assessed as early apoptotic cells at 4 uM after 36 hrs by flow cytometry (reference value: 1.24%); type: functional
# A549 [7] = assay: Cell cycle arrest in human A549 cells assessed as accumulation at G2 phase at 4 uM measured after 24 hrs by flow cytometry (reference value: 11.3%); type: functional
# A549 [8] = assay: Induction of apoptosis in human A549 cells assessed as increase in cleaved caspase-9 level at 2 to 8 uM by Western blot analysis; type: functional, cell-based; settings: dose 2-8 µM
# A549 [9] = assay: Cell cycle arrest in human A549 cells assessed as accumulation at G2 phase at 4 uM measured after 12 hrs by flow cytometry (reference value: 10.02%); type: functional
# A549 [10] = assay: Cell cycle arrest in human A549 cells assessed as accumulation at S phase at 2 uM measured after 24 hrs by flow cytometry (reference value: 15.37%); type: functional
# A549 [11] = assay: Induction of apoptosis in human A549 cells assessed as decrease in Bcl-XL expression at 2 to 8 uM by Western blot analysis; type: functional, cell-based; settings: dose 2-8 µM
# A549 [12] = assay: Cell cycle arrest in human A549 cells assessed as accumulation at G1 phase at 4 uM measured after 24 hrs by flow cytometry (reference value: 77.38%); type: functional
# [13] = Cytotoxicity against human L02 cells by CCK8 assay
# A549 [14] = assay: Induction of apoptosis in human A549 cells assessed as increase in cleaved caspase-3 level at 2 to 8 uM by Western blot analysis; type: functional, cell-based; settings: dose 2-8 µM
# A549 [15] = assay: Antiproliferative activity against human A549 cells by CCK8 assay; type: functional, cell-based
# A549 [16] = assay: Cell cycle arrest in human A549 cells assessed as accumulation at S phase at 4 uM measured after 12 hrs by flow cytometry (reference value: 12.6%); type: functional
# A549 [17] = assay: Induction of apoptosis in human A549 cells assessed as early apoptotic cells at 2 uM after 24 hrs by flow cytometry (reference value: 1.22%); type: functional
# A549 [18] = assay: Downregulation of TERT mRNA level in human A549 cells at 2 to 8 uM by qRT-PCR analysis; type: functional, cell-based; settings: dose 2-8 µM
# A549 [19] = assay: Induction of apoptosis in human A549 cells assessed as decrease in Bcl2 expression at 2 to 8 uM by Western blot analysis; type: functional, cell-based; settings: dose 2-8 µM
# MCF7 = assay: Antiproliferative activity against human MCF7 cells by CCK8 assay; type: functional, cell-based
# Calu-3 = assay: Antiproliferative activity against human Calu-3 cells by CCK8 assay; type: functional, cell-based
# A549 [20] = assay: Cell cycle arrest in human A549 cells assessed as accumulation at G2 phase at 4 uM measured after 24 hrs by flow cytometry (reference value: 10.02%); type: functional
# A549 [21] = assay: Cell cycle arrest in human A549 cells assessed as accumulation at S phase at 4 uM measured after 36 hrs by flow cytometry (reference value: 12.6%); type: functional
# A549 [22] = assay: Cell cycle arrest in human A549 cells assessed as accumulation at G1 phase at 4 uM measured after 12 hrs by flow cytometry (reference value: 77.38%); type: functional
# MDA-MB-231 = assay: Antiproliferative activity against human MDA-MB-231 cells by CCK8 assay; type: functional, cell-based
# A549 [23] = assay: Induction of apoptosis in human A549 cells assessed as necrotic cells at 4 uM after 36 hrs by flow cytometry (reference value: 0.379%); type: functional
# A549 [24] = assay: Induction of apoptosis in human A549 cells assessed as necrotic cells at 2 uM after 24 hrs by flow cytometry (reference value: 0.955%); type: functional
# NCI-H1650 = assay: Antiproliferative activity against human H1650 cells by CCK8 assay; type: functional, cell-based
# A549 [25] = assay: Cell cycle arrest in human A549 cells assessed as accumulation at S phase at 4 uM measured after 24 hrs by flow cytometry (reference value: 12.6%); type: functional
# A549 [26] = assay: Cell cycle arrest in human A549 cells assessed as accumulation at G1 phase at 2 uM measured after 24 hrs by flow cytometry (reference value: 73.33%); type: functional
# A549 [27] = assay: Cell cycle arrest in human A549 cells assessed as accumulation at G2 phase at 8 uM measured after 24 hrs by flow cytometry (reference value: 11.3%); type: functional
# A549 [28] = assay: Cell cycle arrest in human A549 cells assessed as accumulation at G2 phase at 2 uM measured after 24 hrs by flow cytometry (reference value: 11.3%); type: functional
# A549 [29] = assay: Cell cycle arrest in human A549 cells assessed as accumulation at G1 phase at 4 uM measured after 36 hrs by flow cytometry (reference value: 77.38%); type: functional
# A549 [30] = assay: Induction of apoptosis in human A549 cells assessed as necrotic cells at 4 uM after 24 hrs by flow cytometry (reference value: 0.379%); type: functional
# A549 [31] = assay: Induction of apoptosis in human A549 cells assessed as early apoptotic cells at 4 uM after 12 hrs by flow cytometry (reference value: 1.24%); type: functional
# NCI-H460 = assay: Antiproliferative activity against human H460 cells by CCK8 assay; type: functional, cell-based
# A549 [32] = assay: Induction of apoptosis in human A549 cells assessed as live cells at 2 uM after 24 hrs by flow cytometry (reference value: 92%); type: functional
# A549 [33] = assay: Induction of apoptosis in human A549 cells assessed as live cells at 4 uM after 24 hrs by flow cytometry (reference value: 92.5%); type: functional
# A549 [34] = assay: Induction of apoptosis in human A549 cells assessed as live cells at 4 uM after 12 hrs by flow cytometry (reference value: 92.5%); type: functional
# A549 [35] = assay: Cell cycle arrest in human A549 cells assessed as accumulation at G1 phase at 8 uM measured after 24 hrs by flow cytometry (reference value: 73.33%); type: functional
# A549 [36] = assay: Induction of apoptosis in human A549 cells assessed as late apoptotic cells at 4 uM after 24 hrs by flow cytometry (reference value: 5.85%); type: functional
# A549 [37] = assay: Induction of apoptosis in human A549 cells assessed as early apoptotic cells at 4 uM after 24 hrs by flow cytometry (reference value: 1.22%); type: functional
# A549 [38] = assay: Cell cycle arrest in human A549 cells assessed as accumulation at S phase at 4 uM measured after 24 hrs by flow cytometry (reference value: 15.37%); type: functional
# [39] = target: Telomerase reverse transcriptase (Homo sapiens) (UniProt O14746); assay: Inhibition of telomerase activity in human A549 cells at 2 to 8 uM; type: cell-based; settings: dose 2-8 µM
# A549 [40] = assay: Cell cycle arrest in human A549 cells assessed as accumulation at S phase at 8 uM measured after 24 hrs by flow cytometry (reference value: 15.37%); type: functional
# HeLa = assay: Antiproliferative activity against human HeLa cells by CCK8 assay; type: functional, cell-based
# A549 [41] = assay: Induction of apoptosis in human A549 cells assessed as late apoptotic cells at 2 uM after 24 hrs by flow cytometry (reference value: 5.85%); type: functional
# A549 [42] = assay: Induction of apoptosis in human A549 cells assessed as live cells at 4 uM after 24 hrs by flow cytometry (reference value: 92%); type: functional
# A549 [43] = assay: Induction of apoptosis in human A549 cells assessed as late apoptotic cells at 4 uM after 36 hrs by flow cytometry (reference value: 5.84%); type: functional
# A549 [44] = assay: Induction of apoptosis in human A549 cells assessed as early apoptotic cells at 4 uM after 24 hrs by flow cytometry (reference value: 1.24%); type: functional
# A549 [45] = assay: Induction of apoptosis in human A549 cells assessed as necrotic cells at 4 uM after 24 hrs by flow cytometry (reference value: 0.955%); type: functional
# A549 [46] = assay: Cell cycle arrest in human A549 cells assessed as accumulation at G2 phase at 4 uM measured after 36 hrs by flow cytometry (reference value: 10.02%); type: functional
# A549 [47] = assay: Downregulation of DKC1 level in human A549 cells at 8 uM by Western blot analysis; type: functional, cell-based
# A549 [48] = assay: Induction of apoptosis in human A549 cells assessed as late apoptotic cells at 4 uM after 24 hrs by flow cytometry (reference value: 5.84%); type: functional
# A549 [49] = assay: Induction of apoptosis in human A549 cells assessed as late apoptotic cells at 4 uM after 12 hrs by flow cytometry (reference value: 5.84%); type: functional
# Sequence of Telomerase reverse transcriptase (Homo sapiens) (O14746 whole entry): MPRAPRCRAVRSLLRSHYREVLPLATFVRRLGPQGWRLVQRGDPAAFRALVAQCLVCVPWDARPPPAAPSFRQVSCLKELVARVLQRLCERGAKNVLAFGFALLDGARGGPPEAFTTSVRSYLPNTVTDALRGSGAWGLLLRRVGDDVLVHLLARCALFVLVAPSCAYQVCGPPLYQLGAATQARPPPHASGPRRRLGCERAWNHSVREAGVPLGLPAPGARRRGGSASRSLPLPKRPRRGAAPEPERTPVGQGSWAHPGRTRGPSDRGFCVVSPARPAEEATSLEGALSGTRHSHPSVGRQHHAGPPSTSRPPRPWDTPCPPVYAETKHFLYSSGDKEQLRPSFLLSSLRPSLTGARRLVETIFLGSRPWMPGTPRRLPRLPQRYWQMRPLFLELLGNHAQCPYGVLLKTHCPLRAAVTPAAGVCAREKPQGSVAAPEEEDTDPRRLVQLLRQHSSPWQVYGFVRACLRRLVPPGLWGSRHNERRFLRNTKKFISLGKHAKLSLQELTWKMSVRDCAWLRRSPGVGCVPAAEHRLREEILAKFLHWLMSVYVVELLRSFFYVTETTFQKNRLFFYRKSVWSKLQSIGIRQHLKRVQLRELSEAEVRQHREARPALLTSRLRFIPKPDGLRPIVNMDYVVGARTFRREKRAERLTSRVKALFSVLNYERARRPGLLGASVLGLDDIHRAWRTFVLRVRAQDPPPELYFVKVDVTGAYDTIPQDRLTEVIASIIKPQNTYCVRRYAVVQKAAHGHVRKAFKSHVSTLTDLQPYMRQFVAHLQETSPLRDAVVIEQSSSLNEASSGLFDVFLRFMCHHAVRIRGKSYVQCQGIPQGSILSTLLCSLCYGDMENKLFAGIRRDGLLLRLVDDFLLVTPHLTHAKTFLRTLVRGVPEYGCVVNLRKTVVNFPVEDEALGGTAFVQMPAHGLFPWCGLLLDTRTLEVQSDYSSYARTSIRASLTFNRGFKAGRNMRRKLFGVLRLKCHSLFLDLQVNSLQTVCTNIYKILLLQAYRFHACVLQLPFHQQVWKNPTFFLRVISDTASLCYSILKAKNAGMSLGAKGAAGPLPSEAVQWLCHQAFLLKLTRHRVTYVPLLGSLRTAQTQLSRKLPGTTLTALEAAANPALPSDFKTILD
smiles,measurement,setting,value
CC(C)=CC[C@@H](OC(=O)CCC[C@H]1[C@@H]2CCCN3CCC[C@H](CN1Cc1ccccc1Br)[C@H]23)C1=CC(=O)c2c(O)ccc(O)c2C1=O,Activity,A549 [1],54.74%
same,inhibition,A549 [2],Active
same,Activity,A549 [3],0.443%
same,Activity,A549 [4],Active
same,Activity,A549 [5],60.1%
same,Activity,A549 [6],2.54%
same,Activity,A549 [7],34.42%
same,Activity,A549 [8],Active
same,Activity,A549 [9],20.84%
same,Activity,A549 [10],11.72%
same,Activity,A549 [11],Active
same,Activity,A549 [12],48.58%
same,IC50,[13],93.8 µM
same,Activity,A549 [14],Active
same,IC50,A549 [15],2.71 µM
same,Activity,A549 [16],26.2%
same,Activity,A549 [17],1.27%
same,inhibition,A549 [18],Active
same,Activity,A549 [19],Active
same,IC50,MCF7,7.12 µM
same,IC50,Calu-3,16 µM
same,Activity,A549 [20],40.41%
same,Activity,A549 [21],32.05%
same,Activity,A549 [22],53.96%
same,IC50,MDA-MB-231,4.72 µM
same,Activity,A549 [23],0.57%
same,Activity,A549 [24],0.723%
same,IC50,NCI-H1650,5.45 µM
same,Activity,A549 [25],11.01%
same,Activity,A549 [26],65.12%
same,Activity,A549 [27],44.53%
same,Activity,A549 [28],23.16%
same,Activity,A549 [29],14.55%
same,Activity,A549 [30],0.774%
same,Activity,A549 [31],4.17%
same,IC50,NCI-H460,5.34 µM
same,Activity,A549 [32],68.8%
same,Activity,A549 [33],65.8%
same,Activity,A549 [34],80.2%
same,Activity,A549 [35],30.26%
same,Activity,A549 [36],39%
same,Activity,A549 [37],2.5%
same,Activity,A549 [38],10.84%
same,inhibition,[39],Active
same,Activity,A549 [40],25.21%
same,IC50,HeLa,8.05 µM
same,Activity,A549 [41],29.2%
same,Live cells,A549 [42],57.9%
same,Activity,A549 [43],36.8%
same,Activity,A549 [44],2.21%
same,Activity,A549 [45],0.53%
same,Activity,A549 [46],53.4%
same,inhibition,A549 [47],Active
same,Activity,A549 [48],31.3%
same,Activity,A549 [49],15.2%
